≈ marks a conversion by molar mass, not a printed value. One block for each compound: values may come before it.
Columns and labels:
Assay in all cases: ≥ marks a high value that may be exact or a test limit, other limits are often not marked, values filed in µg/mL are converted to µM
[1] = tested on: Mycobacterium tuberculosis H37Rv
[2] = tested on: Acinetobacter baumannii Ab5753
[3] = tested on: Candida albicans ATCC 90028
[4] = tested on: Escherichia coli ATCC 25922
Escherichia coli Ec513 = tested on: Escherichia coli Ec513
[5] = tested on: Pseudomonas aeruginosa Pa1409
[6] = tested on: Staphylococcus aureus NCTC 8325
[7] = tested on: Staphylococcus aureus Sa1390
Escherichia coli K88 = tested on: Escherichia coli K88
[8] = tested on: Escherichia coli O157:H7 CICC 21530
[9] = tested on: Lacticaseibacillus rhamnosus 1.0911
[10] = tested on: Lacticaseibacillus rhamnosus 1.0936
[11] = tested on: Lacticaseibacillus rhamnosus 1.9021
[12] = tested on: Lacticaseibacillus rhamnosus 8014
[13] = tested on: Pseudomonas aeruginosa ATCC 27853
[14] = tested on: Pseudomonas aeruginosa PAO1
[15] = tested on: Salmonella enterica subsp. enterica serovar Choleraesuis CVCC 503
[16] = tested on: Salmonella enterica subsp. enterica serovar Pullorum C79-13
[17] = tested on: Salmonella enterica subsp. enterica serovar Typhimurium ATCC 14028
[18] = tested on: Staphylococcus aureus ATCC 29213
[19] = tested on: Staphylococcus aureus ATCC 43300
[20] = tested on: Staphylococcus epidermidis ATCC 12228
[21] = tested on: Streptococcus agalactiae BNCC 185941
Escherichia coli INV-a = tested on: Escherichia coli INV-a
[22] = tested on: Lactococcus lactis MG1363
[23] = tested on: Bacillus cereus ATCC 11778
[24] = tested on: Bacillus thuringiensis ATCC 10792
[25] = tested on: Cryptococcus gattii ATCC 56990
[26] = tested on: Cryptococcus neoformans ATCC 90112
[27] = tested on: Enterococcus faecium CCT 5079
[28] = tested on: Enterococcus hirae ATCC 10541
[29] = tested on: Escherichia coli ATCC 11775
[30] = tested on: Escherichia coli CCT 1457
[31] = tested on: Micrococcus luteus ATCC 4698
[32] = tested on: Paracoccidioides brasiliensis
[33] = tested on: Paracoccidioides lutzii ATCC MYA-826
[34] = tested on: Pseudomonas aeruginosa ATCC 13388
[35] = tested on: Pseudomonas aeruginosa ATCC 15422
[36] = tested on: Salmonella enterica subsp. enterica serovar Choleraesuis ATCC 10708
[37] = tested on: Staphylococcus aureus ATCC 25923
[38] = tested on: Staphylococcus aureus CCT 2580
[39] = tested on: Staphylococcus aureus CCT 6538
[40] = tested on: Streptococcus mutans AU159
[41] = tested on: Streptococcus pneumoniae ATCC 11733

Compound: CC(C)C[C@H](NC(=O)[C@H](C)N)C(=O)N[C@@H](CCCCN)C(=O)N[C@@H](CCCCN)C(=O)N[C@@H](CC(C)C)C(=O)N[C@H](C(=O)N[C@@H](CCCN=C(N)N)C(=O)N[C@@H](Cc1c[nH]c2ccccc12)C(=O)N[C@@H](Cc1c[nH]c2ccccc12)C(=O)N[C@@H](CCCCN)C(=O)N[C@@H](CCCN=C(N)N)C(=O)N[C@@H](Cc1c[nH]c2ccccc12)C(=O)N[C@@H](Cc1c[nH]c2ccccc12)C(=O)N[C@@H](CO)C(=O)N[C@@H](CCCCN)C(=O)O)C(C)C [ALKKLVRWWKRWWSK]
- MIC [1]: 18.1 µM (≈ 37.5 µg/mL)

Compound: CC[C@H](C)[C@H](NC(=O)[C@H](CC(C)C)NC(=O)[C@H](C)NC(=O)[C@@H]1CCCN1C(=O)[C@H](Cc1ccccc1)NC(=O)[C@H](C)NC(=O)[C@H](CCCCN)NC(=O)[C@H](CCSC)NC(=O)[C@H](CC(C)C)NC(=O)CNC(=O)CNC(=O)[C@H](CC(C)C)NC(=O)[C@@H](N)Cc1ccccc1)C(=O)N[C@H]1CSSC[C@@H](C(=O)O)NC(=O)[C@H](CCCCN)NC(=O)[C@H](CCCCN)NC(=O)[C@H]([C@@H](C)O)NC(=O)[C@H](C(C)C)NC(=O)[C@H](C)NC1=O [FLGGLMKAFPALICAVTKKC]
- MIC [2]: ≥ 60.6 µM
- MIC [3]: 14 µM (≈ 29.5 µg/mL)
- MIC [4]: 4 µM (≈ 8.44 µg/mL)
- MIC (Escherichia coli Ec513): ≥ 60.6 µM
- MIC [5]: ≥ 60.6 µM
- MIC [6]: 17 µM (≈ 35.9 µg/mL)
- MIC [7]: 30.3 µM (≈ 63.9 µg/mL)

Compound: CC(C)C[C@H](NC(=O)[C@H](CCCCN)NC(=O)[C@H](CCCCN)NC(=O)CN)C(=O)N[C@@H](CC(C)C)C(=O)N[C@@H](Cc1c[nH]c2ccccc12)C(=O)N[C@@H](CC(C)C)C(=O)N[C@@H](CC(C)C)C(=O)N[C@@H](CCCCN)C(=O)N[C@@H](CCCCN)C(=O)NCC(N)=O [GKKLLWLLKKG]
- MIC (Escherichia coli K88): 16 µM (≈ 20.5 µg/mL)
- MIC [8]: ≥ 64 µM
- MIC [9]: ≥ 128 µM
- MIC [10]: ≥ 128 µM
- MIC [11]: ≥ 128 µM
- MIC [12]: ≥ 128 µM
- MIC [13]: > 128 µM
- MIC [14]: 64 µM (≈ 82.1 µg/mL)
- MIC [15]: ≥ 64 µM
- MIC [16]: 16 µM (≈ 20.5 µg/mL)
- MIC [17]: > 128 µM
- MIC [18]: > 128 µM
- MIC [19]: > 128 µM
- MIC [20]: > 128 µM
- MIC [21]: ≥ 128 µM

More lines, main results first:

- MIC (Escherichia coli INV-a): ≥ 33 µM
- MIC [22]: 21 µM (≈ 31.8 µg/mL)
Compound: CC[C@H](C)[C@H](N)C(=O)N[C@@H](CC(N)=O)C(=O)N[C@@H](Cc1c[nH]c2ccccc12)C(=O)N[C@@H](CCCCN)C(=O)NCC(=O)N[C@H](C(=O)N[C@@H](C)C(=O)N[C@@H](C)C(=O)N[C@@H](CCSC)C(=O)N[C@@H](C)C(=O)N[C@@H](CCCCN)C(=O)N[C@@H](CCCCN)C(=O)N[C@@H](CC(C)C)C(=O)N[C@@H](C)C(N)=O)[C@@H](C)CC [INWKGIAAMAKKLA]

- MIC [23]: 18.9 µM (≈ 31 µg/mL)
- MIC [24]: 18.9 µM (≈ 31 µg/mL)
- MIC [3]: 9.51 µM (≈ 15.6 µg/mL)
- MIC [25]: 9.5 µM (≈ 15.6 µg/mL)
- MIC [26]: 19 µM (≈ 31.2 µg/mL)
- MIC [27]: 0.609 µM (≈ 0.999 µg/mL)
- MIC [28]: 9.74 µM (≈ 16 µg/mL)
- MIC [29]: 9.74 µM (≈ 16 µg/mL)
- MIC [4]: 18.9 µM (≈ 31 µg/mL)
- MIC [30]: 2.44 µM (≈ 4 µg/mL)
- MIC [31]: 1.22 µM (≈ 2 µg/mL)
- MIC [32]: 4.75 µM (≈ 7.8 µg/mL)
- MIC [33]: 9.5 µM (≈ 15.6 µg/mL)
- MIC [34]: 4.87 µM (≈ 8 µg/mL)
- MIC [35]: 9.74 µM (≈ 16 µg/mL)
- MIC [17]: 4.87 µM (≈ 8 µg/mL)
- MIC [37]: 2.44 µM (≈ 4 µg/mL)
- MIC [38]: 2.44 µM (≈ 4 µg/mL)
- MIC [39]: 4.87 µM (≈ 8 µg/mL)
- MIC [20]: 1.22 µM (≈ 2 µg/mL)
- MIC [40]: 4.87 µM (≈ 8 µg/mL)
- MIC [41]: 0.609 µM (≈ 0.999 µg/mL)
Compound: CC[C@H](C)[C@H](N)C(=O)N[C@@H](CC(N)=O)C(=O)N[C@@H](Cc1c[nH]c2ccccc12)C(=O)N[C@@H](CC(C)C)C(=O)N[C@@H](CCCCN)C(=O)N[C@H](C(=O)N[C@@H](C)C(=O)N[C@@H](CCCCN)C(=O)N[C@@H](CCCCN)C(=O)N[C@H](C(=O)N[C@@H](CCCCN)C(=O)NCC(=O)N[C@@H](CCSC)C(=O)N[C@@H](CC(C)C)C(N)=O)C(C)C)[C@@H](C)CC [INWLKIAKKVKGML]
- MIC [36]: 18.9 µM (≈ 31 µg/mL)
